Drawing on patent publication US20210393588A1, “READY TO USE I[…] OF BR[…] SALT THEREOF” (Zenvision Pharma LLP, priority 2018, published 2021), this text covers Stability during storage and Solubility for one compound.

Read-outs that look alike come from different tables or passages of the source.

Data set [1] is described as follows: Storage stability of aqueous solutions of Brivaracetam. Type of data set: physicochemical. The settings on record: aqueous solution. The text has this:
Also degradation products in solution are formed due to oxidation, pH ranges.

The conditions of data set [2]: cited from earlier work.

For `CCC[C@@H]1CC(=O)N([C@@H](CC)C(N)=O)C1` [Brivaracetam, (2S)-2-[(4R)-2-oxo-4-propyltetrahydro-1H-pyrrol-1-yl]butanamide], the Stability during storage entry in data set [1] was “partially unstable”. Also, the Solubility entry was “freely soluble” in data set [2] (acetone); “freely soluble” in data set [2] (acetonitrile); “very soluble” in data set [2] (buffer (pH 1.2, 4.5, and 7.4)); “very soluble” in data set [2] (ethanol); “very soluble” in data set [2] (glacial acetic acid); “very soluble” in data set [2] (methanol). The Solubility result in data set [2] (n-hexane) is “very slightly soluble”; in data set [2] (toluene) it was “soluble”; in data set [2] (water), “very soluble”.
